Laboratory results reported in patent US12071408B2, “Multi-targeted tyrosine kinase inhibitors effective in antitumor uses” (Shanghai AB PharmaTech Ltd., priority 2021, dated 2024).
Where “and” joins values, the source holds several entries; their conditions need not be identical. Equal entries are not always repeated. Where two headings read alike, the source gives them in different places.

Key:
FGFR3 = FGFR3 (Homo sapiens (Human), UniProt P22607); test: Kinase inhibition, Mobility-Shift Assay; format: biochemical; settings: read-out: FGFR-3 IC50
Description: In this experiment, the inhibitory effects of small molecule inhibitors on 17 kinases were examined by using fluorescent microfluidic mobility shift assay (Mobility-Shift Assay).
2. Compounds were configured in 100% DMSO in a concentration gradient and diluted with buffer to 10% DMSO, and added to 384-well plates. Compounds starting at […] are prepared in 100% DMSO to 25 μM and diluted in a gradient of 10 concentrations, then diluted 10-fold in buffer to make an intermediate dilution of the compound containing 10% DMSO and transferred 5 μl to a 384-well plate. 3. The kinase was diluted to optimal concentration with the following buffers: 50 mM HEPES, pH 7.5, 0.00015% Brij-35, 2 mM DTT (final concentration of enzyme reaction: VEGFR-1 (FLT1): 2 nM; VEGFR-2 (KDR): 1.2 nM; VEGFR-3 (FLT4): 1.5 nM; FGFR1: 2 nM); FGFR2: 9 nM; FGFR3: 8 nM; FGFR4: 10 nM; PDGFRα: 3.5 nM; c-MET: 10 nM; RET: 7 nM; EGFR: 6 nM). Transfer 10 μl into a 384-well plate and incubate with the compounds for 10 min. 4. […] Read the conversion rate with Caliper Reader and calculate the conversion rate as suppression, formula Percent inhIcition=(max−conversion)/(max−min)*100. […]

[1] = tested on: thyroid cancer cell line (TT); test: Tumor cell proliferation inhibition (CTG, 72 h); format: cell-based
VEGFR-3 (FLT4) = VEGFR-3 (FLT4) (Homo sapiens (Human), UniProt P35916); test: Kinase inhibition, Mobility-Shift Assay; format: biochemical
[2] = tested on: cervical cancer cell line (Hela); test: Tumor cell proliferation inhibition (CTG, 72 h); format: cell-based; settings: Homo sapiens; Hela cells, class; read-out: Hela activity effect range (IC50)
[3] = MTD toxicity test in rats; settings: rat, in vivo
rats [4] = test: MTD toxicity test in rats; settings: rat, in vivo, 300 mg/kg
[5] = tested on: bladder cancer cell line (RT112/84); test: Tumor cell proliferation inhibition (CTG, 72 h); format: cell-based; settings: Homo sapiens
PDGFRα = PDGFRα (Homo sapiens (Human), UniProt P16234); test: Kinase inhibition, Mobility-Shift Assay; format: biochemical
C-MET = C-MET (Homo sapiens (Human), UniProt P08581); test: Kinase inhibition, Mobility-Shift Assay; format: biochemical
VEGFR-1 (FLT1) = VEGFR-1 (FLT1) (Homo sapiens (Human), UniProt P17948); test: Kinase inhibition, Mobility-Shift Assay; format: biochemical
RET = RET (Homo sapiens (Human), UniProt P07949); test: Kinase inhibition, Mobility-Shift Assay; format: biochemical
rats [6] = test: 28-day GLP toxicity test; format: in vivo; settings: 50, 100, 150 mg/kg once a day by gavage, 28 days
Description: The 28-day GLP toxicity test also used healthy rats at three doses (50 mg/kg, 100 mg/kg, 150 mg/kg), and the three groups of rats were administered once a day by gavage, and the toxicity of the test substance was evaluated by observing the toxicity response of the experimental animals for 28 consecutive days. […] Therefore, the preferred compound “III-01” designed and synthesized by the present invention not only has better inhibitory activity, but also has better safety and drug-forming properties, which is worthy of further clinical trials and application.

[7] = tested on: hepatocellular carcinoma cell line (Hep3B 2.1-7); test: Tumor cell proliferation inhibition (CTG, 72 h); format: cell-based; settings: Homo sapiens; Hep3B 2.1-7 cells, class; read-out: Hep3B 2.1-7 range of activity (IC50)
VEGFR-2 (KDR) = VEGFR-2 (KDR) (Homo sapiens (Human), UniProt P35968); test: Kinase inhibition, Mobility-Shift Assay; format: biochemical
FGFR1 = FGFR1 (Homo sapiens (Human), UniProt P11362); test: Kinase inhibition, Mobility-Shift Assay; format: biochemical; settings: read-out: FGFR-1 IC50
EGFR = EGFR (Homo sapiens (Human), UniProt P00533); test: Kinase inhibition, Mobility-Shift Assay; format: biochemical
ABL = ABL (Homo sapiens (Human), UniProt P00519); test: Kinase inhibition, Mobility-Shift Assay; format: biochemical
[8] = tested on: leukemia cell line (K562); test: Tumor cell proliferation inhibition (CTG, 72 h); format: cell-based; settings: Homo sapiens; K562 cells, class; read-out: K562 activity effect range (IC50)
FGFR4 = FGFR4 (Homo sapiens (Human), UniProt P22455); test: Kinase inhibition, Mobility-Shift Assay; format: biochemical
FGFR2 = FGFR2 (Homo sapiens (Human), UniProt P21802); test: Kinase inhibition, Mobility-Shift Assay; format: biochemical
hERG potassium channels = hERG potassium channels (Homo sapiens (Human), UniProt Q12809); test: hERG in vitro inhibition, whole-cell patch clamp; format: cell-based; settings: in vitro hERG current inhibition
[9] = Homo sapiens, TT cells, class, read-out: TT range of activity (IC50)
[10] = TT thyroid cancer cells, 72 h, read-out: TT (uM), inhibitory activity IC50
[11] = RT112/84 bladder cancer cells, 72 h, read-out: RT112/84 (uM), inhibitory activity IC50
[12] = RT112/84 cells, class, read-out: RT112/84 range of activity (IC50)
[13] = class, read-out: C-MET range of activity (IC50)
[14] = class, read-out: KDR activity effect range (IC50)
[15] = class, read-out: EGFR range of activity (IC50)
[16] = class, read-out: FGFR4 range of activity effects (IC50)
[17] = class, read-out: FGFR2 range of activity effects (IC50)

Chain of C-MET (P08581 25-1390): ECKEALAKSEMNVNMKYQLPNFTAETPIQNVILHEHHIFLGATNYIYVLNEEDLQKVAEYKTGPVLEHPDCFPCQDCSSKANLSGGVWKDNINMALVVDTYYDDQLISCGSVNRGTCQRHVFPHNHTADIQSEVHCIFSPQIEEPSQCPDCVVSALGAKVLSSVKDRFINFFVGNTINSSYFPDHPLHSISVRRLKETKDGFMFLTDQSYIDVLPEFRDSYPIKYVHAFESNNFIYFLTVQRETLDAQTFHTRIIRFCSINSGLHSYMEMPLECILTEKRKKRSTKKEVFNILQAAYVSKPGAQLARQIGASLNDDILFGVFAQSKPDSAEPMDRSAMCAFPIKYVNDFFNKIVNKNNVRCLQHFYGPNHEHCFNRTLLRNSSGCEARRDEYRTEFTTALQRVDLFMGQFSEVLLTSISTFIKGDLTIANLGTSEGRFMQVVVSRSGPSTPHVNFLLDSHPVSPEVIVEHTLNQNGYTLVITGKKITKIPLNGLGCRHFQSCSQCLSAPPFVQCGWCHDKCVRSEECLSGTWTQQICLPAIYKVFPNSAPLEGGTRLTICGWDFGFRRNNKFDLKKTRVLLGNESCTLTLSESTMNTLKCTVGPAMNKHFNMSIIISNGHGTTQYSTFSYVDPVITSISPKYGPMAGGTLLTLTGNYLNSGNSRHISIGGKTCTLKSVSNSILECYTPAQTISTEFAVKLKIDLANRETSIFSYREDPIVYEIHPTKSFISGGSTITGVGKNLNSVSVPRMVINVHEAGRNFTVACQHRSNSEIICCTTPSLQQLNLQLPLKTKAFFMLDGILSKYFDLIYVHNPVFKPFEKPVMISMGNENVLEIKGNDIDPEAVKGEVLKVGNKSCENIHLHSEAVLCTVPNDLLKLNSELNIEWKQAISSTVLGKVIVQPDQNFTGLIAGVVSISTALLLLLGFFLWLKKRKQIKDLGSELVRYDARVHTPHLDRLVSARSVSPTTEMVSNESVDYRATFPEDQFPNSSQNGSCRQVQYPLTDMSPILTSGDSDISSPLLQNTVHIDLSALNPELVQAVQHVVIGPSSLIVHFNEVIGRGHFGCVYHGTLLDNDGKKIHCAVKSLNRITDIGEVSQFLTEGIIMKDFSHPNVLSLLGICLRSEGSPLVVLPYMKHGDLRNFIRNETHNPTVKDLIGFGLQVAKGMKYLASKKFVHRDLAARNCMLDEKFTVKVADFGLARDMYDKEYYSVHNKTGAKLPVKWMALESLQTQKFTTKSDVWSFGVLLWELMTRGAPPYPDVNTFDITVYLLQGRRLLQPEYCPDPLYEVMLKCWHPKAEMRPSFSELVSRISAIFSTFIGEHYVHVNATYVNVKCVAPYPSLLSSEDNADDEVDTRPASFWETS
Chain of FGFR3 (P22607 23-806): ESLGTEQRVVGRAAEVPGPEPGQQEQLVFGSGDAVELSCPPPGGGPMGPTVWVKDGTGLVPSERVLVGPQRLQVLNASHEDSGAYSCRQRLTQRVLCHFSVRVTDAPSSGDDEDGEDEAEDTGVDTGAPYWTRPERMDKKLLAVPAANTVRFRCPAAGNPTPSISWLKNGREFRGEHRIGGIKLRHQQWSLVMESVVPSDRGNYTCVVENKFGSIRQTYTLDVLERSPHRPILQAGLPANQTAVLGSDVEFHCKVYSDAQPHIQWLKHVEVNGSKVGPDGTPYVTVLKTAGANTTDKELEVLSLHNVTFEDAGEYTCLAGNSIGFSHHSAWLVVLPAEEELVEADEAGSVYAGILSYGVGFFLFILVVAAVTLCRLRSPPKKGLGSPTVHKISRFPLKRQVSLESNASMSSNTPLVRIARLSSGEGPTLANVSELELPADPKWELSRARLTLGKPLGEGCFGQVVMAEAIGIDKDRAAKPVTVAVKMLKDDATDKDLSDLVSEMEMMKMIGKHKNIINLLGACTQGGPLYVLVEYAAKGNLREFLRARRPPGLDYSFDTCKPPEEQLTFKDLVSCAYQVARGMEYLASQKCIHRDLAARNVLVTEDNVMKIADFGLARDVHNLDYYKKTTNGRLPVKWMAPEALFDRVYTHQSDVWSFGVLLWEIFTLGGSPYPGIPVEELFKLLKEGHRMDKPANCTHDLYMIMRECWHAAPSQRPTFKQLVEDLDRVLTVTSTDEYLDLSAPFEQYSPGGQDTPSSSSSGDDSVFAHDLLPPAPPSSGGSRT
Chain of FGFR4 (P22455 22-802): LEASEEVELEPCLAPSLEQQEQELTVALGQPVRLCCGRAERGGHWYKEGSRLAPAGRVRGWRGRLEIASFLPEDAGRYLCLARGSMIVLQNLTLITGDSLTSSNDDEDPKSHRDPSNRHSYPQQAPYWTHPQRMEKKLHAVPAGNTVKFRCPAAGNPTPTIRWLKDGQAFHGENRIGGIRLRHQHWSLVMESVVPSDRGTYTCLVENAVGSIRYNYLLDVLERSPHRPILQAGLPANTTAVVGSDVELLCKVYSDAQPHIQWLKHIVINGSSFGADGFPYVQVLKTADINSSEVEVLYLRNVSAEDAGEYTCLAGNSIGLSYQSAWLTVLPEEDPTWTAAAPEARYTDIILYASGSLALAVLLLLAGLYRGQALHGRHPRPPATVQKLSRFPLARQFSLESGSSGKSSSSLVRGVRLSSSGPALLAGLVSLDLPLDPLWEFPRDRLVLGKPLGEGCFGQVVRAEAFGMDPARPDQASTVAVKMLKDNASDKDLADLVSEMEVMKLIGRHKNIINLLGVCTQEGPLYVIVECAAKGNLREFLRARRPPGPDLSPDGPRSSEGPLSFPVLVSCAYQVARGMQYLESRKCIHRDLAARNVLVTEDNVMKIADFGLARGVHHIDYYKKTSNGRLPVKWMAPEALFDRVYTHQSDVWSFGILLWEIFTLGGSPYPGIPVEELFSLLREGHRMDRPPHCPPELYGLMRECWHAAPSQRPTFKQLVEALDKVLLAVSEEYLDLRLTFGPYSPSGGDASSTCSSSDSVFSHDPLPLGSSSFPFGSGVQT
Chain of EGFR (P00533 25-1210): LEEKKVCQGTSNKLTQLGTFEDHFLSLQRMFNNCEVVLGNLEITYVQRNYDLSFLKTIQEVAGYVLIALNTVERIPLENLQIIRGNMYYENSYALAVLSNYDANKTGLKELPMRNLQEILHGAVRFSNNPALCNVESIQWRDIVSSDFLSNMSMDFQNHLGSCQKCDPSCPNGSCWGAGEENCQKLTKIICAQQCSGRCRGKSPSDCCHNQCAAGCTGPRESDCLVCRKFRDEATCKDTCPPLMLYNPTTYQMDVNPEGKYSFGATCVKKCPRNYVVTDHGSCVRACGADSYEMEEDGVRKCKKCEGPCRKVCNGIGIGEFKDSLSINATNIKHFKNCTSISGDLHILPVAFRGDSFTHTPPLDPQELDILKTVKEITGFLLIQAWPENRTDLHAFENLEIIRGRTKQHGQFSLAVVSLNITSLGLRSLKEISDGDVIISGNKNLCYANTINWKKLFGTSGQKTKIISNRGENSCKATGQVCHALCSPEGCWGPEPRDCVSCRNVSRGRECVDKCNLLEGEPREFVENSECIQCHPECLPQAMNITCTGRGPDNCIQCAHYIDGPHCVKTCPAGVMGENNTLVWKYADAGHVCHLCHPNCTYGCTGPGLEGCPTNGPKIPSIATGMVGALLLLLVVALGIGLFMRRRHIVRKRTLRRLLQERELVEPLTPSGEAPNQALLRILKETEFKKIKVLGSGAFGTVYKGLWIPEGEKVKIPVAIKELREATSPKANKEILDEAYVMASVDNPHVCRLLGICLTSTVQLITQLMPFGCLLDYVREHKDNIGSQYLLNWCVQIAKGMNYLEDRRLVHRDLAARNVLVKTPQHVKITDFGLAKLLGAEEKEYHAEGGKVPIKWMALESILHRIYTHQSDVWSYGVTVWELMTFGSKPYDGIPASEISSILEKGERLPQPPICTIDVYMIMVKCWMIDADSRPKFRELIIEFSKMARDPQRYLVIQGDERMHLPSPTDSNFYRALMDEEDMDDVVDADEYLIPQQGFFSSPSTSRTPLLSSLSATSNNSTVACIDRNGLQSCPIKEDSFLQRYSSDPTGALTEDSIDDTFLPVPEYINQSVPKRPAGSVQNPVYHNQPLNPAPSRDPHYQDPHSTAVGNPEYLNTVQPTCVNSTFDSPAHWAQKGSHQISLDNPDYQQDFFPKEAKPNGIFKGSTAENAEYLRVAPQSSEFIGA
Chain of FGFR2 (P21802 22-821): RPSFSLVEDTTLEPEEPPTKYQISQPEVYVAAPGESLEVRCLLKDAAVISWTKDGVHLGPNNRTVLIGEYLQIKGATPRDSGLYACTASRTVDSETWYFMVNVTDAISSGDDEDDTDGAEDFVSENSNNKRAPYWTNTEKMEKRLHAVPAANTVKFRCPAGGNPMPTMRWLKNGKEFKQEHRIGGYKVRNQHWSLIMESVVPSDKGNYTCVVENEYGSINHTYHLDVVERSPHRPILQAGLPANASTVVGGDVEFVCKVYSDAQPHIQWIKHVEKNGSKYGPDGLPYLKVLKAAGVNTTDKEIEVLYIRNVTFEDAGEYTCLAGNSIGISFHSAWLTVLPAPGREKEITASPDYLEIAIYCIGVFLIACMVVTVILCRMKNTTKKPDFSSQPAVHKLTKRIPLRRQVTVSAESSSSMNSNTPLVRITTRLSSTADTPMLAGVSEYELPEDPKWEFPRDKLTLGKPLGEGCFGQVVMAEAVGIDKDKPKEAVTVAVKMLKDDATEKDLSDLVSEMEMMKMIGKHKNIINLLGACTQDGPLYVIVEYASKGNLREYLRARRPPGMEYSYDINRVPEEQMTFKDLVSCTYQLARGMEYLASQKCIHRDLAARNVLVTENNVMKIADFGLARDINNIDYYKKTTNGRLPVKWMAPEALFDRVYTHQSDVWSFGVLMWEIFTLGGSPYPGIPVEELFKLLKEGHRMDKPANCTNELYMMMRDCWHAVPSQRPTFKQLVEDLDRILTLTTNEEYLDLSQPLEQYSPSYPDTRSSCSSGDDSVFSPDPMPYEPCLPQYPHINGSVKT

Structure (SMILES)	IC50 (FGFR3) [nM]	IC50 [1, 9] [µM]	IC50 [1, 10] [µM]	IC50 [2] [µM]	IC50 [5, 11] [µM]	IC50 [5, 12] [µM]	IC50 (C-MET; [13]) [nM]	IC50 (C-MET; read-out: C-MET IC50) [nM]	IC50 [7] [µM]	IC50 (VEGFR-2 (KDR); [14]) [nM]	IC50 (EGFR; [15]) [nM]	IC50 (EGFR; read-out: EGFR IC50)	IC50 [8] [µM]	IC50 (FGFR4; [16]) [nM]	IC50 (FGFR4; read-out: FGFR-4 IC50) [nM]	IC50 (FGFR2; [17]) [nM]	other results
COc1cc2nccc(Oc3c(F)cc(NC(=O)NC4CC4)c(Cl)c3F)c2cc1C(N)=O [III-01]	22	< 5	1.5	5 to 10	0.13	< 0.2	60 to 100	96	< 2.5	< 2	< 60	58 nM and 53 nM	5 to 10	< 30	17	< 30	IC50 (VEGFR-3 (FLT4)): 1.1 nM; MTD ([3]; 300 mg/kg, rats, read-out: MTD toxicity dose): 300 mg/kg; MTD ([3]; rats, read-out: MTD toxicity dose): > 300 mg/kg; Observation at MTD dose (rats [4]): without any abnormalities such as death; IC50 (PDGFRα): 7.9 nM; IC50 (VEGFR-1 (FLT1)): 3.7 nM; IC50 (RET): 2.5 nM; Autopsy results, 28-day GLP toxicity test (rats [6]): did not reveal any abnormal changes; IC50 (VEGFR-2 (KDR); read-out: VEGFR-2 (KDR) IC50): 0.6 nM; Ames assay (Ames assay): negative; IC50 (FGFR1): 14 nM; IC50 (ABL): 68 nM; IC50 (FGFR2; read-out: FGFR-2 IC50): 11 nM; IC50 (hERG potassium channels): > 30 µM
COc1cc2nccc(Oc3c(F)cc(NC(=O)NC4CC4)c(Cl)c3N(C)C)c2cc1C(N)=O [III-49]	–	> 10	–	> 10	–	> 1	> 100	–	> 5	> 10	> 100	–	> 10	> 100	–	> 100	–
COc1cc2nccc(Oc3c(F)c(F)c(NC(=O)NC4CC4)c(N(C)C)c3F)c2cc1C(N)=O [III-50]	–	> 10	–	> 10	–	> 1	> 100	–	> 5	> 10	> 100	–	> 10	> 100	–	> 100	–
COc1cc2nccc(Oc3c(F)c(F)c(NC(=O)NC4CC4)c(OC)c3F)c2cc1C(N)=O [III-51]	–	> 10	–	> 10	–	> 1	> 100	–	> 5	> 10	> 100	–	> 10	> 100	–	> 100	–
COc1cc2nccc(Oc3c(F)c(N(C)C)c(NC(=O)NC4CC4)c(N(C)C)c3F)c2cc1C(N)=O [III-52]	–	> 10	–	> 10	–	> 1	> 100	–	> 5	> 10	> 100	–	> 10	> 100	–	> 100	–
COc1cc2nccc(Oc3ccc(NC(=O)NC4CC4)c(Cl)c3)c2cc1C(N)=O [Lenvatinib, reference compound]	59	> 10	> 10	–	0.29	0.2 to 1	> 100	> 1000	–	–	–	–	–	30 to 100	65	30 to 100	IC50 (VEGFR-3 (FLT4)): 3.2 nM; MTD [3]: 40 mg/kg; IC50 (PDGFRα): 27 nM; IC50 (FGFR1): 56 nM; IC50 (FGFR2; read-out: FGFR-2 IC50): 27 nM
COc1cc2nccc(Oc3ccc(NC(=O)NC4CC4)c(Cl)c3F)c2cc1C(N)=O [Ref-2, reference compound]	–	–	6.4	–	0.42	–	–	–	–	–	–	> 1000 nM	–	–	39	–	IC50 (VEGFR-2 (KDR); read-out: VEGFR-2 (KDR) IC50): 8.6 nM; IC50 (hERG potassium channels): 15.4 µM
CNC(=O)c1cc(Oc2ccc(NC(=O)Nc3ccc(Cl)c(C(F)(F)F)c3)c(F)c2)ccn1 [Regorafenib, reference compound]	62	> 10	–	–	–	0.2 to 1	> 100	> 1000	–	–	> 100	> 1000 nM	–	> 100	> 500	–	IC50 (ABL): > 500 nM
